Data set [1] deals with Pseudomonas aeruginosa. The data set can be described thus: In vitro antibacterial activity against Pseudomonas aeruginosa, agar dilution MIC (Experiment 3). To be noted: CLSI 2018 (Table 5). It counts as cell-based. The procedure:
Tested samples: the compound of the present invention, prepared according to the preparation example method; Compound C, prepared with reference to WO2008154642A2.
With reference to the steps of the agar dilution method in the 2018 USA Clinical and Laboratory Standards Institute (CLSI), the determination of the minimum inhibitory concentration (MIC) of the compounds against the strain(s) was carried out.
Preparation of drug-containing plate: (1) a drug solution with the highest concentration was prepared, and the highest concentration of each compound was 160 μg/mL. (2) For each compound, the drug solution with the highest concentration was subjected to the double dilution, and a total of 10 concentration gradients was obtained; for each of dilution gradient, 2 mL of the drug solution was added to 18 mL MH agar solution which had been autoclaved at 121° C. and cooled to about 50° C.; the mixture was uniformly mixed, left stand and cooled to give a drug-containing plate; and the plate was labeled. The final concentrations of the compound were respectively 16, 8, 4, 2, 1, 0.5, 0.25, 0.125, 0.06 and 0.03 μg/mL.
Inoculum preparation and inoculation: A fresh single colony was selected, diluted with 0.9% sodium chloride injection, adjusted to 0.5 #McFarland turbidity, and then diluted 10 times with 0.9% sodium chloride injection, then inoculated with an automatic multi-point inoculation instrument to the labeled drug-containing plate.
For orientation: In agar dilution, organisms are placed on agar that contains the substance at set levels.

Data set [2] is described as follows: Pharmacokinetics (PK) determination in SD rats (Experiment 4). The class given is in vivo. As to conditions: plasma; for Cl_obs / Vz_obs / t1/2z / λ_z: IV 2 mg/kg; for AUC(0-t) / AUC(0-inf): Sprague-Dawley (SD), rat, iv; for AUC(0-inf): read-out: AUCINF_obs. In outline:
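SD rats; caudal-vein blood on heparin, plasma stored at −80 °C. Plasma protein-precipitated with internal standard, diluted with water and quantified by LC-MS/MS on C18 column; PK parameters by noncompartmental-software analysis.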

Data set [3] relates to Pseudomonas aeruginosa. In words: In vitro antibacterial activity, agar dilution MIC (Experiment 1). It counts as cell-based. In outline: (§1)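 MIC is the minimum inhibitory concentration, determined by agar dilution per the NCCLS M7-A7 standard. Strains tested were E. coli ATCC25922, P. aeruginosa ATCC27853 and K. pneumoniae ATCC700603.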
A further data set deals with Klebsiella pneumoniae. The data set is described as above. The class given is cell-based. In outline:
as §1

In the next data set the test system is Escherichia coli. Described as above. It counts as cell-based. A digest of the protocol:
as §1

Data set [4] relates to polymyxin-resistant mcr-1 positive Enterobacteriaceae. In words: In vitro antibacterial effect on polymyxin-resistant mcr-1 positive Enterobacteriaceae, agar dilution MIC (Experiment 2). The class given is cell-based, Escherichia coli. The procedure:
Tested samples: the compounds of the present invention, prepared according to the methods of the preparation examples;
Polymyxin E sulphate, Ampicillin, Cefotaxime, Gentamicin, Ciprofloxacin, Tetracycline, and Bactrim were all commercial products, the following experiments were carried out according to the content of an effective ingredient in each commercial product.
Tested strains: Escherichia coli carrying mcr-1 gene isolated from animals and Escherichia coli ATCC25922, a quality control strain, were provided by South China Agricultural University.
With reference to the agar dilution method in CLSI, the MIC value of the tested drugs to the polymyxin resistant mcr-1 positive Escherichia coli were determined.
Preparation of drug-containing agar plates: a drug solution with the highest concentration was prepared for each compound; the drug solution with the highest concentration was subjected to the double dilution; for each of dilution gradient, 1 mL (20×drug working solution) of the drug solution was added to 19 mL MH agar at 45-50° C.; immediately after addition, the agar and the drug solution were uniformly mixed to give a drug-containing agar plate with final concentrations of […], and the plate was solidified for later use; and in the meanwhile, a growth control group was arranged.
Inoculum preparation and culture: the strains stored at −80° C. were rejuvenated and formulated with broth so that the turbidity reached or exceeded 0.5 #McFarland unit; a 96-well plate was used as the inoculation tank, and the bacterial solution was diluted with sodium chloride injection so that the content of bacteria inoculated on the agar was 10^4 CFU/point. A multi-point inoculation instrument was used to inoculate the bacterial solution to the surface of the labeled drug-containing agar. After the water in the inoculation point was completely absorbed by the agar, the plate was placed upside down in a 37° C. constant-temperature incubator and incubated for 16-20 hours.

[5] abbreviates: agar dilution (Table 3), read-out: MIC50.
[6] abbreviates: agar dilution (Table 3), read-out: MIC90.

The text below walks through data of patent US11498909B2, “Compound acting as antibiotics” (KBP BIOSCIENCES CO., LTD., priority 2018, dated 2022).

Molecules are shown by their SMILES. In brackets after ≈: the same amount, converted by molar mass. Where two headings read alike, the source gives them in different places. Some results are limits rather than exact numbers.

In turn, `C[C@@H](O)[C@H](NC(=O)c1ccc(C#CC#Cc2ccc(CO)cc2)cc1)C(=O)NO` [Compound C] yielded an MIC50 with Pseudomonas aeruginosa [1] of 4 µg/mL (≈ 10.2 µM). In addition, the MIC90 in the data set on Pseudomonas aeruginosa [1] and in the data set on Pseudomonas aeruginosa [1] (read-out: MIC90) was greater than 16 µg/mL each time.

With `C[C@@H](O)[C@H](NC(=O)c1ccc(C#CC#Cc2ccc(CO)n2C)cc1)C(=O)NO` [Compound 33, N-((2S,3R)-3-hydroxy-1-(hydroxamino)-1-oxobutan-2-yl)-4-((5-(hydroxymethyl)-1-methyl-1H-pyrrol-2-yl)buta-1,3-diynyl)benzamide], in data set [2], the Cl_obs was determined as 56.5 ± 22.3 mL/min/kg, the Vz_obs amounted to 1.21 ± 0.34 L/kg, the t1/2z was found to be 15.6 ± 2.4 min and the λ_z came out at 2.75 ± 0.50 h⁻¹. In addition, in data set [2] (2 mg/kg), the AUC(0-t) was 666 ± 318 ng·h/mL and the AUC(0-inf) was found to be 671 ± 315 ng·h/mL. In the data set with Pseudomonas aeruginosa [3], this compound yielded an MIC50 of 1 µg/mL (≈ 2.53 µM) and an MIC90 of 8 µg/mL (≈ 20.2 µM). In the data set with Klebsiella pneumoniae, this compound came in with an MIC50 of 0.5 µg/mL (≈ 1.26 µM) and an MIC90 of 1 µg/mL (≈ 2.53 µM). In the data set on Escherichia coli, this compound gave an MIC50 of 0.125 µg/mL (≈ 0.316 µM) and an MIC90 of 0.125 µg/mL (≈ 0.316 µM).

In data set [2], `C[C@@H](O)[C@H](NC(=O)c1ccc(C#CC#Cc2ccc(CN3CCOCC3)o2)cc1)C(=O)NO` [Compound 23, N-((2S,3R)-3-hydroxy-1-(hydroxyamino)-1-oxobutan-2-yl)-4-((5-(morpholinomethyl)furan-2-yl)buta-1,3-diynyl)benzamide] showed a Cl_obs of 30 ± 8.33 mL/min/kg. In data set [2], this compound returned a Vz_obs of 0.52 ± 0.02 L/kg. Also, the t1/2z in data set [2] worked out at 12.6 ± 3.6 min. Also, in data set [2], the λ_z is 3.47 ± 1.09 h⁻¹. This compound came in with an AUC(0-t) in data set [2] (2 mg/kg) of 1160 ± 278 ng·h/mL. Besides, the AUC(0-inf) in data set [2] (2 mg/kg) amounted to 1160 ± 277 ng·h/mL. The MIC50 in the data set with Pseudomonas aeruginosa [3] (setting [5]) stood at 1 µg/mL (≈ 2.21 µM); in the data set on Klebsiella pneumoniae (agar dilution, read-out: MIC50), 1 µg/mL (≈ 2.21 µM); in the data set on Escherichia coli (agar dilution, read-out: MIC50), 0.25 µg/mL (≈ 0.554 µM). Besides, the MIC90 in the data set with Pseudomonas aeruginosa [3] (setting [6]) came out at 8 µg/mL (≈ 17.7 µM); with Klebsiella pneumoniae (agar dilution, read-out: MIC90) it was 1 µg/mL (≈ 2.21 µM); with Escherichia coli (agar dilution, read-out: MIC90), 0.25 µg/mL (≈ 0.554 µM).

As for `CC(O)[C@H](NC(=O)c1ccc(C#CC#Cc2ccc(CO)o2)cc1)C(=O)NO` (stereo in doubt) [Compound 6, N-((2S,3R)-3-hydroxy-1-(hydroxyamino)-1-oxobutan-2-yl)-4-((5-(hydroxymethyl)furan-2-yl)buta-1,3-diynyl)benzamide], the MIC90 in data set [4] (Escherichia coli, read-out: MIC90 Value, polymyxin-resistant mcr-1 positive Escherichia coli, agar dilution) amounted to 1 µg/mL (≈ 2.62 µM); in the data set on Pseudomonas aeruginosa [1] (read-out: MIC90), 1 µg/mL (≈ 2.62 µM); in the data set with Pseudomonas aeruginosa [3] (setting [6]) it was 1 µg/mL (≈ 2.62 µM); in the data set with Klebsiella pneumoniae (agar dilution, read-out: MIC90) it was 1 µg/mL (≈ 2.62 µM); with Escherichia coli, 0.125 µg/mL (≈ 0.327 µM). Further, in data set [4] (polymyxin-resistant mcr-1 positive Escherichia coli, agar dilution), the “MIC90 Value” was determined as 0.5 µg/mL (≈ 1.31 µM). This compound registered a Cl_obs in data set [2] (2 mg/kg) of 8.33 ± 1 mL/min/kg. This compound yielded a Vz_obs in data set [2] (2 mg/kg) of 0.46 ± 0.14 L/kg. In data set [2] (2 mg/kg), this compound showed a t1/2z of 37.2 ± 7.2 min. The compound further yielded a λ_z in data set [2] (2 mg/kg) of 1.14 ± 0.21 h⁻¹. For the same compound, the AUC(0-t) in data set [2] (2 mg/kg) came out at 4000 ± 442 ng·h/mL. Further, in data set [2] (2 mg/kg), the AUC(0-inf) came to 4010 ± 443 ng·h/mL. The MIC50 with Pseudomonas aeruginosa [1] worked out at 0.5 µg/mL (≈ 1.31 µM); in the data set with Pseudomonas aeruginosa [3] (setting [5]), 0.25 µg/mL (≈ 0.654 µM); in the data set on Klebsiella pneumoniae (agar dilution, read-out: MIC50), 1 µg/mL (≈ 2.62 µM); against Escherichia coli it was 0.125 µg/mL (≈ 0.327 µM).

What is called MIC50 is the lowest concentration that inhibits either 50% of growth or 50% of the strains tested, depending on the study. The MIC90 is an inhibitory concentration at the 90% level, which refers to growth in some studies and to a panel of isolates in others. What is called AUC(0-t) is exposure summed from dosing to a finite time, without extrapolation to infinity. A higher AUC(0-t) goes with more exposure.
